According to the NIST ThermoML archive (doi:10.1021/je200903m):

Settings: Liquid, isochoric method

CCn1cc[n+](C)c1.O=S(=O)([O-])C(F)(F)F [1-ethyl-3-methylimidazolium trifluoromethanesulfonate]
Settings	mass density [kg/m3]
264.14 K, 39698 kPa	1434.17
264.21 K, 29714 kPa	1429.2
264.31 K, 10134 kPa	1419.79
265.07 K, 1265.2 kPa	1414.41
271.03 K, 50162 kPa	1433.46
271.03 K, 50199 kPa	1433.45
271.04 K, 9677.3 kPa	1413.82
271.04 K, 11097 kPa	1414.79
271.04 K, 19702 kPa	1419.12
271.04 K, 29909 kPa	1424.08
271.04 K, 30156 kPa	1424.07
271.04 K, 40035 kPa	1428.5
271.04 K, 40309 kPa	1428.49
271.04 K, 60071 kPa	1437.92
271.05 K, 20286 kPa	1419.1
271.4 K, 1190.5 kPa	1408.62
272.28 K, 2655.9 kPa	1408.53
277.45 K, 49840 kPa	1427.83
277.68 K, 39776 kPa	1423.39
277.8 K, 30125 kPa	1418.42
277.84 K, 10946 kPa	1407.96
277.84 K, 19967 kPa	1413.12
284.58 K, 20183 kPa	1407.3
284.65 K, 40227 kPa	1417.71
284.69 K, 60421 kPa	1427.09
284.73 K, 50105 kPa	1422.67
284.93 K, 30204 kPa	1412.4
285.1 K, 728.1 kPa	1397.61
291.42 K, 29930 kPa	1406.61
291.49 K, 49838 kPa	1417.02
291.92 K, 10046 kPa	1396.94
291.92 K, 41361 kPa	1412.67
291.94 K, 40088 kPa	1411.69
292.62 K, 61503 kPa	1421.86
298.19 K, 124.2 kPa	1386.18
298.19 K, 39944 kPa	1405.91
299.14 K, 60111 kPa	1416.26
299.19 K, 50157 kPa	1410.96
299.54 K, 20406 kPa	1396.18
300.18 K, 1687.5 kPa	1385.35
305.75 K, 49851 kPa	1405.17
306.58 K, 60078 kPa	1410.23
306.75 K, 10122 kPa	1384.72
306.76 K, 29599 kPa	1395.48
313.35 K, 59888 kPa	1404.41
314.04 K, 19458 kPa	1384.01
314.64 K, 40402 kPa	1394.69
315.41 K, 1377.5 kPa	1372.29
322.27 K, 50268 kPa	1393.94
322.29 K, 30090 kPa	1383.21
322.3 K, 9799.1 kPa	1371.63
329.98 K, 59857 kPa	1393.19
330.68 K, 40501 kPa	1382.4
331.49 K, 1256.6 kPa	1358.62
332.56 K, 22229 kPa	1370.66
338.11 K, 9067.3 kPa	1358
338.47 K, 50063 kPa	1381.64
339.28 K, 30155 kPa	1370.02
346.74 K, 59641 kPa	1380.85
347.76 K, 20122 kPa	1357.09
347.76 K, 40116 kPa	1369.21

CCCCCCn1cc[n+](C)c1.F[B-](F)(F)F [1-hexyl-3-methylimidazolium tetrafluoroborate]
Settings	mass density [kg/m3]
219.92 K, 2501.7 kPa	1205.15
225.14 K, 11244 kPa	1204.69
230.79 K, 1012.8 kPa	1196.2
231.39 K, 21744 kPa	1204.14
236.44 K, 10093 kPa	1195.71
236.46 K, 30111 kPa	1203.69
242.31 K, 19417 kPa	1195.2
243.65 K, 1941.6 kPa	1186.98
243.68 K, 41792 kPa	1203.05
248.82 K, 49885 kPa	1202.6
249.02 K, 10085 kPa	1186.52
249.02 K, 30013 kPa	1194.61
255.69 K, 20148 kPa	1185.95
255.99 K, 40643 kPa	1194.01
256.48 K, 1742.5 kPa	1177.35
262.31 K, 10140 kPa	1176.87
262.31 K, 30102 kPa	1185.39
263.02 K, 51186 kPa	1193.4
268.9 K, 59865 kPa	1192.9
269.12 K, 19855 kPa	1176.3
269.39 K, 40201 kPa	1184.79
269.9 K, 2119.2 kPa	1166.18
275.8 K, 10046 kPa	1165.7
275.8 K, 29402 kPa	1175.74
276.43 K, 50285 kPa	1184.19
283.5 K, 20904 kPa	1165.06
283.57 K, 60349 kPa	1183.59
283.61 K, 39900 kPa	1175.1
284.27 K, 2189.9 kPa	1156.39
290.66 K, 30442 kPa	1164.48
290.67 K, 30768 kPa	1165.27
290.73 K, 10282 kPa	1155.88
290.73 K, 29904 kPa	1164.49
290.94 K, 49928 kPa	1174.49
298.15 K, 104 kPa	1146.14
298.15 K, 39688 kPa	1164.06
298.15 K, 40557 kPa	1164.66
298.17 K, 39707 kPa	1163.88
298.17 K, 40239 kPa	1163.87
298.52 K, 20112 kPa	1155.26
299.11 K, 712.5 kPa	1145.27
299.38 K, 61164 kPa	1173.79
305.93 K, 49286 kPa	1163.44
305.93 K, 49685 kPa	1163.24
306.82 K, 10007 kPa	1144.66
306.83 K, 30854 kPa	1154.59
314.42 K, 60539 kPa	1162.55
315.25 K, 20171 kPa	1144
315.38 K, 41468 kPa	1153.9
315.84 K, 1234.2 kPa	1133.94
322.71 K, 50376 kPa	1153.32
323.55 K, 9964.4 kPa	1133.35
323.55 K, 29837 kPa	1143.36
330.59 K, 59794 kPa	1152.68
332.16 K, 39991 kPa	1142.68
332.36 K, 19953 kPa	1132.67
333.47 K, 1089.8 kPa	1121.71
340.92 K, 49956 kPa	1141.99
341.61 K, 9779.8 kPa	1121.11
341.63 K, 29941 kPa	1131.97
349.19 K, 1374.3 kPa	1111.71
349.88 K, 60027 kPa	1141.28
350.49 K, 39672 kPa	1131.28
351.2 K, 20298 kPa	1120.38
357.12 K, 9595.1 kPa	1111.13
357.12 K, 26381 kPa	1119.93
357.12 K, 46792 kPa	1130.77

CCCCCCn1cc[n+](C)c1.O=S(=O)([O-])C(F)(F)F [1-hexyl-3-methylimidazolium trifluoromethanesulfonate]
Settings	mass density [kg/m3]
303.14 K, 103.8 kPa	1234.94
303.15 K, 8671.3 kPa	1241.37
303.15 K, 9948.5 kPa	1242.12
303.15 K, 10145 kPa	1241.33
303.15 K, 18778 kPa	1246.84
303.15 K, 29540 kPa	1252.92
303.15 K, 50077 kPa	1263.74
303.15 K, 50213 kPa	1263.74
303.16 K, 19876 kPa	1246.81
303.16 K, 30131 kPa	1252.9
303.16 K, 40525 kPa	1258.84
303.16 K, 40749 kPa	1258.84
303.93 K, 1169.5 kPa	1236.1
311.1 K, 19363 kPa	1240.66
311.1 K, 50109 kPa	1258.15
311.4 K, 59971 kPa	1263.03
311.64 K, 29371 kPa	1246.09
312.12 K, 10064 kPa	1235.43
312.13 K, 19984 kPa	1241.37
312.35 K, 40711 kPa	1252.12
312.67 K, 1137.8 kPa	1229.31
320.01 K, 60231 kPa	1257.4
320.69 K, 29908 kPa	1239.86
321.26 K, 40148 kPa	1245.28
321.32 K, 10225 kPa	1228.6
321.34 K, 19896 kPa	1234.67
321.7 K, 51336 kPa	1251.33
322.86 K, 1202 kPa	1221.53
330.07 K, 40113 kPa	1239.07
330.33 K, 60665 kPa	1250.61
330.45 K, 29706 kPa	1233.91
330.66 K, 50504 kPa	1244.49
331.61 K, 20974 kPa	1227.76
331.62 K, 10028 kPa	1220.82
332.5 K, 1153.4 kPa	1214.09
339.16 K, 49816 kPa	1238.32
339.45 K, 59226 kPa	1243.78
340.07 K, 39808 kPa	1233.11
340.31 K, 30074 kPa	1227.04
341.51 K, 9933.5 kPa	1213.37
341.52 K, 20038 kPa	1220.02
342.34 K, 977.2 kPa	1206.6
348.25 K, 58008 kPa	1237.59
349.94 K, 49966 kPa	1232.3
350.06 K, 39798 kPa	1226.25
351.54 K, 29910 kPa	1219.2
351.77 K, 10055 kPa	1205.85
351.77 K, 19878 kPa	1212.55
